From US12258331B2, “Pyrimidine derivative and preparation process and use thereof” (Guangdong Lewwin Pharmaceutical Research Institute Co., Ltd., priority 2018, dated 2025)

Tests used:
[1] = Pharmacokinetic properties after intravenous injection and intragastric administration; type: in vivo, mice
Protocol: Shanghai Medicilon Bio-pharmaceutical Co., LTD was commissioned to research pharmacokinetic properties of the novel pyrimidine derivatives (R)-14, (R)-5b, and Tepotinib in mice. The specific processes are: An appropriate amount of the compounds (R)-14, (R)-5b and Tepotinib were accurately weighed and dissolved in a solution containing 2% Solutol and 98% 100 mM sodium acetate to obtain a clear dosing solution at a concentration of 2 mg/mL for intravenous administration. An appropriate amount of the compounds (R)-14, (R)-5b were accurately weighed and dissolved in 5% Solutol and 95% saline to obtain a clear dosing solution at a concentration of 5 mg/mL. An appropriate amount of Tepotinib was accurately weighed and dissolved in 5% Solutol, 5% DMSO and 90% saline, for oral administration and injection. Blood was collected from the test […] via jugular vein puncture, about 0.3 mL for per sample, and using heparin sodium as the anticoagulant. The time points for blood sampling were as below (including intravenous injection and oral administration): before administration, 5 min, 15 min, 30 min, 1 h, 2 h, 4 h, 8 h and 24 h post administration. After collection, blood samples were placed on ice, and plasma was separated by centrifugation within 30 minutes (centrifugation conditions: 8000 rpm, 6 minutes, 2-8° C.). The collected plasma was stored at −80° C. before analysis. Plasma samples were all analyzed qualitatively and quantitatively by LC-MS/MS. The dosage and ways for administration were intravenous injection (IV, 2 mg/kg) and intragastric administration (PO, 5 mg/kg) respectively, with the pharmacokinetic data shown in Table 3.

[2] = Metabolic stability in rat liver microsomes; settings: 37° C.
Protocol: Firstly, a SD rat (200-300 g) was fasted for 12 hours, and then infused rapidly with normal saline. Liver was taken out from the rat, from which liver microsomes were extracted at 0-4° C., ready for use after calibrating the concentration of liver microsomes. At 37° C., liver microsomes were incubated in combination with a certain concentration of compounds and auxiliary reagents for a period of time. The reaction was then quenched with acetonitrile.

[3] = Sprague-Dawley, mouse, in vivo, iv, 2 mg/kg
[4] = Sprague-Dawley, mouse, in vivo, po, 5 mg/kg

| AUC0-∞ [1, 3] [ng·h/mL] | CL [1, 3] [mL/min/kg] | T1/2 [1, 3] [h] | AUC0-∞ [1, 4] [ng·h/mL] | T1/2 (metabolic half-life in liver microsomes) [2] [h] | AUC0-∞ ([1]; IV 2 mg/kg) [ng·h/mL] | CL ([1]; IV 2 mg/kg) [mL/min/kg] | T1/2 ([1]; IV 2 mg/kg) [h] | Vz ([1]; IV 2 mg/kg) [L/kg] | AUC0-∞ ([1]; PO 5 mg/kg) [ng·h/mL] | Cmax ([1]; PO 5 mg/kg) [ng/mL] | Tmax ([1]; PO 5 mg/kg) [h] | F % (bioavailability) ([1]; PO 5 mg/kg vs IV 2 mg/kg) [%] | Tmax [1, 4] [h] | Structure (SMILES) |
| --- | --- | --- | --- | --- | --- | --- | --- | --- | --- | --- | --- | --- | --- | --- |
| 2143.91 | 15.548 | 4.23 | 4580.23 |  |  |  |  |  |  |  |  |  |  | C[C@H](c1cccc(-c2ncc(OCC3CCN(C)CC3)cn2)c1)n1nc(-c2cccc(C#N)c2)ccc1=O [(R)-5b] |
|  |  |  |  | 0.345 | 562.74 | 59.2338 | 1.79 | 9.17868 | 981.69 | 211.23 | 1 | 67.77 |  | CN1CCC(COc2cnc(-c3cccc(Cn4nc(-c5cccc(C#N)c5)ccc4=O)c3)nc2)CC1 [Tepotinib] |
| 2441.64 | 13.652 | 4.48 | 6309.37 |  |  |  |  |  |  |  |  |  | 4 | [2H]C([2H])([2H])C([2H])(c1cccc(-c2ncc(OCC3CCN(C)CC3)cn2)c1)n1nc(-c2cccc(C#N)c2)ccc1=O (stereo in doubt) [(R)-14] |
